According to PubChem BioAssay AID250 (DTP/NCI, 2004):
Several values for one entry are separate records, joined by “and”; a condition that tells them apart may be missing. Identical values can stand only once. Toxic doses and inconclusive results are not listed.

System: BDF1 mice, L1210 leukemia sc, survival T/C
Test: NCI In Vivo Anticancer Drug Screen. Data for tumor model L1210 Leukemia (subcutaneous) in B6D2F1 (BDF1) mice
Conditions: endpoint: median survival time, vehicle: water, higher = longer survival
Method in brief: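 Read-out: T/C ratio, i.e. survival or tumor size in treated mice over that in vehicle-treated controls, from mice bearing transplantable tumors.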

## O=P1(NCCCl)OCCCN1CCCl (centres undefined)
dose: 7.8 mg/kg/injection, schedule: Q03HX008 (ip)
  T/C: 166 % of control
dose: 7.8 mg/kg/injection, schedule: Q03HX008 (sc)
  T/C: 111 % of control
dose: 15.62 mg/kg/injection, schedule: Q03HX008 (ip)
  T/C: 155 % of control
dose: 15.62 mg/kg/injection, schedule: Q03HX008 (sc)
  T/C: 122 % of control
dose: 23.0 mg/kg/injection, schedule: Q03HX008 (sc)
  T/C: 178 % of control
dose: 31.25 mg/kg/injection, schedule: Q03HX008 (ip)
  T/C: 166 % of control
dose: 31.25 mg/kg/injection, schedule: Q03HX008 (sc)
  T/C: 166 % of control
dose: 39.0 mg/kg/injection, schedule: Q01DX009 (sc)
  T/C: 168 % of control
dose: 39.0 mg/kg/injection, schedule: Q01DX015 (ip)
  T/C: 194 % of control and 197 % of control
dose: 39.0 mg/kg/injection, schedule: Q03HX008 (sc)
  T/C: 210 % of control
dose: 62.5 mg/kg/injection, schedule: Q03HX008 (ip)
  T/C: 611 % of control
dose: 62.5 mg/kg/injection, schedule: Q03HX008 (sc)
  T/C: 611 % of control
dose: 65.0 mg/kg/injection, schedule: Q01DX009 (sc)
  T/C: 189 % of control
dose: 65.0 mg/kg/injection, schedule: Q01DX015 (ip)
  T/C: 236 % of control
dose: 65.0 mg/kg/injection, schedule: Q03HX008 (sc)
  T/C: 278 % of control
dose: 108.0 mg/kg/injection, schedule: Q01DX001 (sc)
  T/C: 111 % of control and 114 % of control
dose: 108.0 mg/kg/injection, schedule: Q01DX009 (sc)
  T/C: 236 % of control
dose: 108.0 mg/kg/injection, schedule: Q01DX015 (ip)
  T/C: 178 % of control and 187 % of control
dose: 108.0 mg/kg/injection, schedule: Q03HX008 (sc)
  T/C: 115 % of control
dose: 108.0 mg/kg/injection, schedule: Q07DX003 (ip)
  T/C: 210 % of control and 218 % of control
dose: 108.0 mg/kg/injection, schedule: Q08DX002 (sc)
  T/C: 173 % of control
dose: 108.0 mg/kg/injection, schedule: Q09DX003 (sc)
  T/C: 154 % of control and 155 % of control
dose: 125.0 mg/kg/injection, schedule: Q01DX001 (ip)
  T/C: 155 % of control
dose: 125.0 mg/kg/injection, schedule: Q01DX001 (sc)
  T/C: 150 % of control
dose: 130.0 mg/kg/injection, schedule: Q01DX001 (sc)
  T/C: 154 % of control and 157 % of control
dose: 130.0 mg/kg/injection, schedule: Q04DX003 (sc)
  T/C: 189 % of control and 197 % of control
dose: 180.0 mg/kg/injection, schedule: Q01DX001 (ip)
  T/C: 183 % of control and 184 % of control
dose: 180.0 mg/kg/injection, schedule: Q01DX015 (ip)
  T/C: 156 % of control and 157 % of control
dose: 180.0 mg/kg/injection, schedule: Q03HX008 (sc)
  T/C: 105 % of control
dose: 180.0 mg/kg/injection, schedule: Q07DX003 (ip)
  T/C: 252 % of control and 253 % of control
dose: 180.0 mg/kg/injection, schedule: Q08DX002 (sc)
  T/C: 215 % of control
dose: 180.0 mg/kg/injection, schedule: Q09DX003 (sc)
  T/C: 244 % of control and 245 % of control
dose: 216.0 mg/kg/injection, schedule: Q01DX001 (sc)
  T/C: 184 % of control and 185 % of control
dose: 216.0 mg/kg/injection, schedule: Q04DX003 (sc)
  T/C: 210 % of control and 216 % of control
dose: 250.0 mg/kg/injection, schedule: Q01DX001 (ip)
  T/C: 205 % of control
dose: 250.0 mg/kg/injection, schedule: Q01DX001 (sc)
  T/C: 177 % of control
dose: 256.0 mg/kg/injection, schedule: Q01DX001 (sc)
  T/C: 192 % of control and 195 % of control
dose: 300.0 mg/kg/injection, schedule: Q01DX001 (ip)
  T/C: 205 % of control
dose: 300.0 mg/kg/injection, schedule: Q01DX009 (sc)
  T/C: 157 % of control
dose: 300.0 mg/kg/injection, schedule: Q07DX003 (ip)
  T/C: 273 % of control and 279 % of control
dose: 300.0 mg/kg/injection, schedule: Q08DX002 (sc)
  T/C: 100 % of control
dose: 300.0 mg/kg/injection, schedule: Q09DX003 (sc)
  T/C: 244 % of control and 247 % of control
dose: 320.0 mg/kg/injection, schedule: Q01DX001 (sc)
  T/C: 212 % of control and 220 % of control
dose: 360.0 mg/kg/injection, schedule: Q01DX001 (sc)
  T/C: 226 % of control and 229 % of control
dose: 360.0 mg/kg/injection, schedule: Q04DX003 (sc)
  T/C: 242 % of control
dose: 400.0 mg/kg/injection, schedule: Q01DX001 (sc)
  T/C: 235 % of control and 249 % of control
dose: 500.0 mg/kg/injection, schedule: Q01DX001 (ip)
  T/C: 242 % of control
dose: 500.0 mg/kg/injection, schedule: Q08DX002 (sc)
  T/C: 121 % of control
dose: 500.0 mg/kg/injection, schedule: Q09DX003 (sc)
  T/C: 116 % of control and 122 % of control
dose: 600.0 mg/kg/injection, schedule: Q01DX001 (sc)
  T/C: 77 % of control
dose: 600.0 mg/kg/injection, schedule: Q04DX003 (sc)
  T/C: 115 % of control and 117 % of control
dose: 625.0 mg/kg/injection, schedule: Q01DX001 (sc)
  T/C: 124 % of control
dose: 833.0 mg/kg/injection, schedule: Q01DX001 (ip)
  T/C: 71 % of control
dose: 1000.0 mg/kg/injection, schedule: Q01DX001 (sc)
  T/C: 63 % of control
